In assay [1] the test system is Foxl1, Wnt5A and Wnt2B expression. Briefly: In situ hybridisation of Foxl1 and Wnt ligands in Vil1-Grem1 villus stroma. The format is in vivo, mouse. The procedure:
To investigate the source of Wnt ligand expression in the villus ectopic crypts in antibody treated and untreated Vil1-Grem1 mice (n=4) we used Foxl1 in situ hybridization (ISH) to identify sub-epithelial telocyte cells as described by Shoshkes-Carmel et al. (2018). Foxl1 expression levels were quantified using the HALO image analysis software.
Paraffin blocks were sectioned (thickness=[…]) using DEPC (Sigma) treated H2O and sections were baked for 2 hours at 60° C. Tissue was deparaffinised and treated with RNAscope Hydrogen Peroxide (ACD 322335) for 10 min at room temperature (RT). Antigen retrieval was performed for 15 minutes using RNAscope 1× Target Retrieval Reagents (1:10 ACD 322000) at 100° C. Samples were treated with RNAscope Protease Plus (ACD 322331) for 30 minutes at 40° C. using an HybEZ Hybridization System (ACD). Probes were incubated for 2 h at 40° C. Probes used were as follows: LGR4 (ACD 318321), LGR5 (ACD 312171), FZD5 (ACD 404911), FZD7 (ACD 534101), WNT2B (ACD 405031), WNT5A (ACD 316791), WNT5A-C3 (ACD, 316791-C3) and FOXL1 (ACD 407401). Slides were counter-stained using Haematoxylin […] or DAPI (Fluorescent).
Slides were scanned at 20× magnification using an Aperio CS2 Digital Pathology Scanner (Leica Biosystems). […] Foxl1 expression levels were quantified using the HALO image analysis platform (PerkinElmer) and expressed as % of DAB staining per area. […]

The target of assay [2] is T1, BMP4/7-Gremlin-1 complexes (Homo sapiens, UniProt O60565).
T1 sequence (O60565 25-184): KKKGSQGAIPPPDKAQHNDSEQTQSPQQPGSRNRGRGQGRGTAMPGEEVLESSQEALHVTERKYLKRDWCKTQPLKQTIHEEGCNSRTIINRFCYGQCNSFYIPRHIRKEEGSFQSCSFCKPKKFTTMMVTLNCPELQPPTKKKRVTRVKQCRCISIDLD
Description: SMAD phosphorylation assay: displacement of BMP4/7 from Gremlin 1-BMP complexes. The format is cell-based. The following applies: BMP4/7 50 ng/ml. The procedure: Experiments were again performed using lung fibroblasts from idiopathic pulmonary fibrosis patients. rhBMP-2 or rhBMP 4/7 were preincubated with rhGremlin-1 for 1 hour at room temperature. The BMP-2- or BMP4/7-Gremlin-1 complexes were incubated with different concentrations of the anti-Gremlin-1 antibodies overnight at 4° C. Antibody concentrations represent the final concentration on the plate.

The subject of another assay is Vil1-Grem1 mice. Briefly: AOM mutagenesis in Vil1-Grem1 mice. In kind it is in vivo, mouse. The following applies: 30 mg/kg weekly antibody for three weeks before and after three 10 mg/kg weekly AOM doses. An excerpt:
Aberrant epithelial Grem1 expression in Vil1-Grem1 mice promotes an epithelial stem/progenitor cell phenotype (Davis et al., 2015), and we hypothesised that these cells would be susceptible to somatic mutation. We used azoxymethane (AOM) administration to examine the effect of a mutagenic insult on untreated Vil1-Grem1 and anti-Grem1 treated Vil1Grem1 mice. AOM is a well-documented mutagen widely utilised in murine models to recapitulate spontaneous CRC carcinogenesis (Neufert and Neurath, 2007).
Mice were treated with three subcutaneous doses of 30 mg/kg weekly anti-Grem1 antibody followed by three intraperitoneal doses of 10 mg/kg weekly azoxymethane (AOM, Sigma) or vehicle (saline) prior to a further three weeks of 30 mg/kg weekly anti-Grem1 antibody. Treatment commenced at or from the age of 90 days onwards, which is late enough in the Vil1-Grem1 disease process to ensure expansion of the progenitor cell population and subsequent formation of ectopic crypt foci.

The subject of assay [3] is PyMT-B01 mouse breast cancer cells. Description: PyMT-B01 breast cancer model in C57BL6 mice (BLI). The format is in vivo. How it is done: PyMT-B01: 5-week old C57BL6 immunocompetent mice were subcutaneously (s.c) administered two 30 mg/kg doses of anti-Grem1 antibody Ab7326 or IgG control, Ab101.4, the week prior to tumour cell inoculation. 1×10^5 luciferase expressing PyMT-B01 mouse breast cancer cells were injected systemically via the caudal artery (CA).
Treatment continued twice weekly for the duration of the study. At weekly intervals, mice were administered 150 mg/kg luciferin intraperitoneally (i.p) and imaged using the Xenogen IVIS Bioluminescence Imaging System, and tumour burden was quantitated using Living Image software. The study ended on day 13 and day 22 post-tumour cell injection for the PyMT-B01 and MDA-MB-231 models respectively, according to animal ethics requirements. Organs were dissected upon culling animals and BLI imaged ex vivo for analysis of tumour metastasis.

Another assay deals with 5TGM1.Bmx1 MM PCs. Description: 5TGM1/KaLwRij mouse model of multiple myeloma, antibody after tumour cell inoculation. The note with it: for Reduction in MM tumour burden (BLI): 30 mg/kg s.c. every 3 days from 3 days post-inoculation, 4 weeks. In kind it is in vivo. How it is done:
Targeting Grem1 in an immunocompetent murine model of systemic MM: C57BL/KaLwRij mice (6-8-week-old) were inoculated with 5×10^5 5TGM1.Bmx1 cells via tail vein injection. Three days post-inoculation with 5TGM1.Bmx1 MM PCs, KaLwRij mice were administered with 30 mg/kg Grem1-neutralising antibody Ab7326 or IgG control Ab101.4 (UCB-Pharma, UK) by subcutaneous (s.c.) injection. Mice were treated every 3 days for the duration of the 4-week model. Tumour burden was monitored weekly by BLI as previously described. At the end of the experiment, blood was collected by tail bleed, centrifuged at 2100 g for 10 min and serum collected. Serum paraprotein levels were analysed using the Hydragel 30 β1β2 kit (Sebia Electrophoresis, Georgia, USA) following the instructions of the manufacturer. The band corresponding to paraprotein was quantitated relative to serum albumin levels. (SAAMRI Animal Ethics SAM165)

These results are taken from patent publication US12162934B2, “Gremlin-1 antagonist for the prevention and treatment of cancer” (UCB BIOPHARMA SRL, priority 2018, dated 2024).

Consider “Ab7326: allosteric inhibitory anti-Gremlin-1 antibody from a naïve human library; CDRs SEQ ID NOS 4 to 9; mouse IgG1 in mouse experiments”, for which the “Stromal Wnt ligand (5A and 2B) expression (ISH)” value in assay [1] (antibody-treated Vil1-Grem1 mice) is “abrogated Wnt ligand expression”. The “Villus stromal Foxl1 expression (ISH)” value in assay [1] (antibody-treated Vil1-Grem1 vs WT p=0.4864) is on record as “restored Foxl1 expression levels”. Further, the “Displacement of BMP4/7 from Gremlin 1-BMP complexes (SMAD phosphorylation)” value in assay [2] (antibody 0.63 μg/ml) is on record as 102.0%; in assay [2] (antibody 1.27 μg/ml), 111.1%; in assay [2] (antibody 2.55 μg/ml), 120.9%; in assay [2] (antibody 5.1 μg/ml), 121.4%; in assay [2] (antibody 10.2 μg/ml), 125.6%; in assay [2] (antibody 20.3 μg/ml) it was 130.3%. In addition, the “Displacement of BMP4/7 from Gremlin 1-BMP complexes (SMAD phosphorylation)” value was found to be 132.3% in assay [2] (antibody 40.6 μg/ml) and 133.7% in assay [2] (antibody 81.3 μg/ml). Moreover, in the assay with Vil1-Grem1 mice, the “Increased tumour burden and reduced survival of AOM-treated animals” value is “partially abrogated”. The “Reduction in overall tumour burden (BLI)” value in assay [3] (day 13, 30 mg/kg s.c. twice weekly, vs isotype control Ab101.4) is listed as 35%. Besides, the “Liver metastatic tumour burden (BLI)” value in assay [3] (vs isotype control) was “downward trend”. The “Lung metastatic tumour burden (ex vivo BLI)” value in assay [3] (vs isotype control) is reported as “statistically significant reduction”. For the same substance, the “Reduction in MM tumour burden (BLI)” value in the assay with 5TGM1.Bmx1 MM PCs (vs IgG control) is listed as about 50%; with 5TGM1.Bmx1 MM PCs (vs IgG control, listed as Grem1-neutralising antibody) it was “approximately 50%”. The “Tumour burden in the hindlimb bones (BLI)” value with 5TGM1.Bmx1 MM PCs (antibody after tumour cell inoculation, vs IgG control) is given as “significant reduction”. For the same substance, the Splenic tumour burden entry in the assay with 5TGM1.Bmx1 MM PCs (post-tumour cell inoculation group) is recorded as “downwards trend”. Further, in the assay with 5TGM1.Bmx1 MM PCs (week 4, vs IgG control), the “M-spike intensity relative to serum albumin (SPEP)” value is listed as “significantly lower”.
